Assay results from a melting point compilation (Tetko et al.).

Structure (SMILES)	melting point
Nc1cnccc1Cl	61 °C
Nc1cc(-c2ccc(Cl)cc2)n[nH]1	174 to 176 °C
CCCCCC#CCC(=O)O	17 °C
CCOC(=O)C1=C(C)NC(=S)NC1c1ccccc1 (configuration not stated)	207 to 209 °C
O=C(O)c1ccc2c(c1)CCO2	185 to 188 °C
Cc1ccc(C(C)(C)C)cc1S	-10 °C
O=C1c2ccccc2C(=O)c2c1ccc([N+](=O)[O-])c2[N+](=O)[O-]	341 °C
COc1ccc(NC(=S)c2ccccc2)cc1	133 °C
OCc1ccccc1N1CCOCC1	54 to 57 °C
Cc1c(Br)cc(C(=O)Cl)c(C)c1C	60 to 62 °C
Cc1nn(C)c(C)c1N	102 °C
CC1CCC(C(C)C)C(OC(=O)C#Cc2ccccc2)C1 (configuration not stated)	64 °C
O=Cc1cnc2ccccc2n1	108 to 111 °C
CCC(C(=O)O)c1ccccc1 (configuration not stated)	47.5 °C
NNC(=O)c1ccc[nH]1	232 to 235 °C
CC(=O)OCC1(C)CCCC23COC4CC5C(C)C(=O)C6(C(CC12)OC(C)(C)OC56)C43 (configuration not stated)	156 °C
COc1c(Br)cc(C)c2c1CCC2	30 °C
NC(=O)Cc1cccc2ccccc12	184 °C
CN1C(=O)C(=NNC(N)=S)c2ccccc21	245 °C
Cc1ccc(C(c2ccc(C)o2)c2cc(Br)ccc2O)o1	97 °C
CC(CC1CCCCC1)C1CCCCC1 (configuration not stated)	-22 °C
CC(=O)CCc1ccc(O)cc1	82 to 84 °C

Structure (SMILES)	melting point
Cc1nc(C(=O)O)c(C)o1	232 to 233 °C
NCCNC(=O)CCn1cnc2c(N)ncnc21	196 °C
Cc1nc(N)ccc1[N+](=O)[O-]	185 to 189 °C
CCCCCCCCCCCCC(=O)OC	6.5 °C
O=C(C(=O)c1cc(Br)ccc1O)c1cc(Br)ccc1O	212 °C
CC12C=CC(=O)C=C1CCC1C3CC(O)C(O)(C(=O)CO)C3(C)CC(O)C12F (configuration not stated)	269 °C
COc1ccc(C(=O)C=Cc2ccc(-c3ccccc3[N+](=O)[O-])o2)cc1OC	119 to 120 °C
Cn1ncc(Br)c1C=O	70 °C
O=C1CCc2ccccc2CC1	30 °C
NC(=O)Cc1nc(-c2ccccc2)cs1	193 to 194 °C
O=C=Nc1ccccc1[N+](=O)[O-]	41 °C
CC(=O)Cc1ncn(-c2cc(C)on2)n1	138 to 140 °C
Cc1cnc(Cl)c(N)c1	82 to 87 °C
O=[N+]([O-])c1ccc(-c2nc(-c3ccccc3)c(-c3ccccc3)[nH]2)cc1	243 to 246 °C
COc1ccccc1-c1nnc2n1NCS2	123 °C
CC(C)(C)OC(=O)NCc1ccc(Br)s1	51 to 54 °C
Cc1ccc(S(=O)c2ccc(C)cc2)cc1	95 °C
COC(=O)c1ccc(OC)c(C#N)c1	124 to 125 °C
CCCCCCCCSCCCCCCCC	0.5 °C
CCCCCCCCCCCCCCCCCCN(C)C	22.9 °C
OC1CCCC1C1CCCC1 (configuration not stated)	20 °C
OCC[C@@H](O)c1ccccc1	62 to 66 °C

Structure (SMILES)	melting point
CCOC(=O)c1c(NC(=O)CN2CCN(C(=O)OCC)CC2)sc2c1CCCC2	122 to 123 °C
CC(C)(C)OC(=O)NC1CCNC1 (configuration not stated)	67 °C
NC(=O)c1ccc(F)c(Cl)c1	146 °C
CC(CO)c1c(O)c(O)c2c(c1O)C(=O)C(=O)C1C2(C)CCC(O)C1(C)C (configuration not stated)	214 to 216 °C
CC1(C)C(=O)OC2=C(CC3C4CC=C5CC(O)CCC5(C)C4CCC23C)C1c1ccccc1 (configuration not stated)	230 to 235 °C
CCOc1ccc(-c2ccc(OCC)cc2)cc1	174 °C
OCc1ccc(Cn2cncn2)cc1	68 to 70 °C
N=C1NC(=O)C(=NNc2ccccc2)S1	210 °C
CC(=O)c1cc(Cl)c(N)c(Cl)c1	161 to 165 °C
Cc1ccsc1C=CC1=NCCCN1C	240 °C
COc1cc(OC)cc(C(N)=O)c1	144 °C
O=C(CBr)c1cc2cc(Br)ccc2o1	140 to 141 °C
CCC(C)OC(=O)C1=C(C)NC(=O)NC1c1ccco1 (configuration not stated)	185 °C
CCOC(=O)C(=NNc1ccccc1[N+](=O)[O-])C(=O)OCC	196 °C
CN(C)c1ccc(C=C2SC(=S)NC2=O)cc1	285 to 288 °C
CC(C)=CCCC(C)=CC=CC(C)=CC=CC(C)=CC=CC=C(C)C=CC=C(C)C=CC=C(C)CCCC(C)(C)O	171 °C
Cc1nc(C#N)cs1	58 °C
CCCCCCCCCCCCCC(=O)Oc1ccc(N=Cc2ccc(N(C)C)cc2)cc1	106 °C
C/C=C/C#N	-51.5 °C
Cc1ccc2c(C)cccc2c1	-16.9 °C
Cc1c(C)c2c(c3c1CC3=O)CC2=O	161 °C
Oc1ccc2cc(Br)ccc2c1	128 °C

Structure (SMILES)	melting point
Cc1ccccc1N	-16.3 °C
COC(=O)c1cc2occc2n1C	81 to 82 °C
O=C(CCCN1CCN(c2ccccn2)CC1)c1ccc(F)cc1	92 °C
NSCc1cc2ccccc2oc1=O	255 °C
NC(=O)CCCCC1CCSS1 (configuration not stated)	128 °C
O=C(O)c1cccc(N=C=S)c1	165 °C
On1nnc2ccc(Cl)cc21	197 °C
CCOC(=O)CSc1sc(C(=O)OCC)c(N)c1C#N	141 °C
CC(CCC(/C=N/NC(N)=O)C(C)C)C(=O)O (configuration not stated)	152 °C
Cc1nn(-c2ccccc2)c(C)c1CO	106 to 110 °C
CC(C)(O)C(Br)(Br)Br	169 °C
COc1ccc2c(c1)CCCN2	42.5 °C
O=C1C=CC(=O)N1c1ccc(Br)cc1	135 to 137 °C
CC(CCC(=O)O)C1CCC2C3C(=O)CC4CCCCC4(C)C3CC(=O)C12C (configuration not stated)	176 °C
CC1OC(=O)C2CC3CCCCC3C(C=CC3CCCC(C)N3C)C12 (single isomer, unassigned; (+))	130 to 136 °C
CCCCCCCCCCCCCC=CC(O)C(CO)NC(C)=O (configuration not stated)	93 to 96 °C
CCCC(=O)Oc1c[nH]c2ccc(Br)c(Cl)c12	91 to 93 °C
Cc1cc(C(=O)O)c(C)n1Cc1cccs1	184 to 187 °C
CCCOC(=O)C1=C(C)NC(=S)NC1c1ccccc1 (configuration not stated)	169 °C
CN(C)c1ccc(C(/C=C2\C=Cc3ccccc3N2)c2ccccc2)cc1 (configuration not stated)	125 °C
N#CCc1ccc(OCc2ccccc2)c(OCc2ccccc2)c1	80 °C
O=C(O)C(F)(F)C(F)(F)C(F)(F)C(F)(C(F)(F)F)C(F)(F)F	13 °C

Structure (SMILES)	melting point
COC(=O)Cc1ccc(OCc2ccccc2)cc1	53 to 58 °C
COc1ccc(C(=O)c2cccs2)cc1	73 to 76 °C
CCOc1ccc2c(c1)C(C)=CC(C)(C)N2	< -20 °C
C=CC(C)(C)O	-28 °C
O=C(Nc1ccc([N+](=O)[O-])cc1)c1ccccc1	198 °C
COc1cc2c(c3oc(=O)c4c(c13)CCC4=O)C1CCOC1O2 (configuration not stated)	288 °C
Nc1ccc(CC(=O)O)cc1	200 °C
CCCCCN	-50 °C
CN(c1c(F)c(F)c(C#N)c(F)c1F)[N+](=O)[O-]	53 °C
NC(=S)CNC(=O)OCc1ccccc1	144 to 146 °C
COc1c(OC)c(OC(C)=O)c2c(OC)cccc2c1OC(C)=O	69.5 °C
CCCCCCCCCCCCCCCCCCCCCCCCCC(=O)O	88.5 °C
CCOC(=O)c1c(NC(=S)Nc2cccc(Cl)c2)sc2c1CCCC2	175 to 177 °C
CSC(C)=NOC(=O)N(C)SN(C)C(=O)ON=C(C)SC	173 °C
CN(C)CCCN1c2ccccc2S(=O)c2ccc(Cl)cc21 (configuration not stated)	115 °C
Cc1c(CCl)c(C)c2c(c1CCl)CC2	92 °C
CCOC(=O)c1c(C)cc(=O)oc1C	17 to 18 °C
Cc1c(C)c(C)c(C=O)c(C)c1C	146 to 148 °C
Cn1nc(N)c2c(=O)c(C(=O)O)c[nH]c21	223 to 225 °C
O=C=Nc1ccc(OCc2ccccc2)cc1	61 to 63 °C
CC(Cl)C(N)=O (configuration not stated)	76 to 81 °C
COc1c(C(=O)Cl)csc1Br	79 to 82 °C

Structure (SMILES)	melting point
O=C(C=Nc1ccccc1)c1cc(C(=O)C=Nc2ccccc2)cc(C(=O)C=Nc2ccccc2)c1	340 °C
CCNc1ccc([N+](=O)[O-])cc1[N+](=O)[O-]	108 to 119 °C
OCC1OC(c2ccccc2)OC1CO (single isomer, unassigned; (+))	69 to 74 °C
O=C(O)c1cc(F)nc(F)c1F	125 to 127 °C
Cc1cc2ccccc2cc1CC(F)(F)F	75 to 75.5 °C
CCCCOc1ccc(N)c([N+](=O)[O-])c1	64 to 66 °C
COC(=O)c1ccc(N)c(Br)c1	104 to 108 °C
NC(=O)c1cccc(F)c1F	116 °C
CC(C)C(OC(=O)c1cccnc1)c1ccc(Cl)cc1 (configuration not stated)	61 °C
CN1CCOc2cc(S(=O)(=O)Cl)cnc21	130 to 132 °C
FC(F)(F)c1nc(C(F)(F)F)nc(C(F)(F)F)n1	-24.8 °C
N#CC(C#N)=C1c2cc([N+](=O)[O-])ccc2-c2c1cc([N+](=O)[O-])cc2[N+](=O)[O-]	267 °C
Clc1cccc2c(-c3ccccc3)c(-c3ccccc3)[nH]c12	97 to 98 °C
c1ccc2cc3c(ccc4cc5ccccc5cc43)cc2c1	257 °C
O=C(O)CCc1ccc(Cl)cc1	119 °C
C1CSC2=C(S1)SC(=C1SC3=C(SCCS3)S1)S2	244 °C
CCOC(=O)C(CO)(CO)C(=O)OCC	50 °C
CCN(O)CC	10 °C
COC(=O)c1cc(C)n(CO)n1	89 °C
Cn1c(=O)c(C2=NNC(=O)C2=Cc2cccc([N+](=O)[O-])c2)c(O)c2ccccc21	261 °C
CCCCCCCCCCC(C)CC (configuration not stated)	-38 °C
C(COCCOCC1CO1)OCCOCC1CO1 (configuration not stated)	-13 °C
